Measured values taken from patent US12145927B2 (BRISTOL-MYERS SQUIBB COMPANY, priority 2018, dated 2024).
pIC50: −log10 of the molar value.

Target: T1, human IDO1 (Homo sapiens, UniProt P14902)
T1 construct: expressed in transfected cells
Assay: IDO inhibition assay in human IDO1/HEK293 cells (IDO1 HEK Human)
Format: cell-based
Conditions: HEK293 cells stably expressing human IDO1; 20 hours incubation; absorbance at 490 nm after Ehrlich reagent
Description: HEK293 cells were transfected with a pCDNA-based mammalian expression vector harboring human IDO1 cDNA (NM 002164.2) by electroporation. They were cultured in medium (DMEM with 10% FBS) containing 1 mg/ml G418 for two weeks. Clones of HEK293 cells that stably expressed human IDO1 protein were selected and expanded for IDO inhibition assay.
The human IDO1/HEK293 cells were seeded at 10,000 cells per 50 μL per well with RPMI/phenol red free media contains 10% FBS in a 384-well black wall clear bottom tissue culture plate (Matrix Technologies LLC) 100 nL of certain concentration of compound was then added to each well using ECHO liquid handling systems. The cells were incubated for 20 hours in 37° C. incubator with 5% CO2.
The compound treatments were stopped by adding trichloroacetic acid (Sigma-Aldrich) to a final concentration at 0.2%. The cell plate was further incubated at 50° C. for 30 minute. The equal volume supernatant (20 μL) and 0.2% (w/v) Ehrlich reagent (4-dimethylaminobenzaldehyde, Sigma-Aldrich) in glacial acetic acid were mixed in a new clear bottom 384-well plate. This plate was then incubated at RT for 30 minute. The absorbance at 490 nm was measured on Envision plate reader.
Compound IC50 values were calculated using the counts of 500 nM of a reference standard treatment as one hundred percent inhibition, and counts of no compound but DMSO treatment as zero percent inhibition.

T1 sequence (P14902 whole entry): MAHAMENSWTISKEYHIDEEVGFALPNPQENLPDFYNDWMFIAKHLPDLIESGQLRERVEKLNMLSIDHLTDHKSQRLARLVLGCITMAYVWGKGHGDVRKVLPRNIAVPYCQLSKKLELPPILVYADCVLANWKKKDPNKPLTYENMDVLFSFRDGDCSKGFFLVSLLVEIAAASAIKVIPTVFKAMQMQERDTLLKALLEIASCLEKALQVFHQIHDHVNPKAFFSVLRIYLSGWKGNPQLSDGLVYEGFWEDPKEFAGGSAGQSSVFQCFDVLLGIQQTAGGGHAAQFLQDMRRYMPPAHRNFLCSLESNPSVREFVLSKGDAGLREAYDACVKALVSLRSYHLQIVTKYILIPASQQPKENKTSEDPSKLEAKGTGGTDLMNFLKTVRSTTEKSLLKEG

| SMILES | pIC50 |
| --- | --- |
| c1ccc(C2CCCOc3c(Nc4nc5ccccc5o4)cc(-c4ccccc4-c4nnn[nH]4)cc32)cc1 (single isomer, unassigned) [53 (En. 1), N-(7-(2-(1H-tetrazol-5-yl)phenyl)-5-phenyl-2,3,4,5-tetrahydrobenzo[b]oxepin-9-yl) benzo[d] oxazol-2-amine] | 6.67 |
| Cc1ccc(NC(=O)Nc2cc(-c3ccccc3-c3nnn[nH]3)cc3c2OCCCC3c2ccccc2)nc1 (centres unmarked) [Example 17, 1-(7-(2-(1H-tetrazol-5-yl)phenyl)-5-phenyl-2,3,4,5-tetrahydrobenzo[b]oxepin-9-yl)-3-(5-methylpyridin-2-yl)urea] | 7.28 |
| Cc1cnc(Nc2cc(-c3ccccc3-c3nnn[nH]3)cc3c2OCCCC3c2ccccc2)nc1 (single isomer, unassigned) [55 (En. 2), N-(7-(2-(1H-tetrazol-5-yl)phenyl)-5-phenyl-2,3,4,5-tetrahydrobenzo[b]oxepin-9-yl)-5-methylpyrimidin-2-amine] | 7.11 |
| C=C[C@H]1Oc2c(NC(=O)Cc3ccc(C)cc3)cc(-c3ccccc3-c3nnn[nH]3)cc2[C@@H]1c1ccccc1 (racemic) [Example 91, (+/−)-N-((trans)-5-(2-(1H-tetrazol-5-yl)phenyl)-3-phenyl-2-vinyl-2,3-dihydrobenzofuran-7-yl)-2-(p-tolyl)acetamide] | 7.05 |
| Cc1ccc(CC(=O)Nc2cc(-c3ccccc3-c3nnn[nH]3)cc3c2OCCCC3C(C)C)cc1 (racemic) [25 (Rac), N-(7-(2-(1H-tetrazol-5-yl)phenyl)-5-isopropyl-2,3,4,5-tetrahydrobenzo[b]oxepin-9-yl)-2-(p-tolyl)acetamide] | 7.52 |
| Cc1ccc(NC(=O)Nc2cc(-c3ccccc3-c3nnn[nH]3)cc3c2O[C@@H](C)[C@H]3c2ccccc2)cc1 (relative stereo) [Example 113, rel-1-((2R,3R)-5-(2-(2H-tetrazol-5-yl)phenyl)-2-methyl-3-phenyl-2,3-dihydrobenzofuran-7-yl)-3-(p-tolyl)urea] | 7.11 |
| Cc1ccc(-c2noc(Nc3cc(-c4ccccc4-c4nnn[nH]4)cc4c3OCCCC4c3ccccc3)n2)cc1 (single isomer, unassigned) [26 (En. 2), N-(7-(2-(1H-tetrazol-5-yl)phenyl)-5-phenyl-2,3,4,5-tetrahydrobenzo[b]oxepin-9-yl)-3-(p-tolyl)-1,2,4-oxadiazol-5-amine] | 6.37 |
| Cc1ccc(CC(=O)Nc2cc(-c3ccccc3-c3nnn[nH]3)cc3c2OCCCC3c2ccccc2)cc1 (single isomer, unassigned) [Example 2-2, N-(7-(2-(1H-tetrazol-5-yl)phenyl)-5-phenyl-2,3,4,5-tetrahydrobenzo[b]oxepin-9-yl)-2-(p-tolyl)acetamide] | 7.50 |
| Cc1ccc(CC(=O)Nc2cc(-c3ccccc3-c3nnn[nH]3)cc3c2OCCCC3C2CC2)c(F)c1 (single isomer, unassigned) [39 (En. 2)] | 7.49 |
| Cc1cnc(Nc2cc(-c3ccccc3-c3nnn[nH]3)cc3c2OCCCC3c2ccccc2)nc1 (single isomer, unassigned) [55 (En. 1), N-(7-(2-(1H-tetrazol-5-yl)phenyl)-5-phenyl-2,3,4,5-tetrahydrobenzo[b]oxepin-9-yl)-5-methylpyrimidin-2-amine] | 5.85 |
| C=C(C)C1Oc2c(NC(=O)Nc3ccc(C)cc3)cc(-c3ccc(OC)c(C(=O)O)c3)cc2C1c1ccccc1 (racemic) [Example 97] | 5.74 |
| Cc1ccc(CC(=O)Nc2cc(-c3ccccc3-c3nnn[nH]3)cc3c2OCCCC3C(C)C)cc1 (single isomer, unassigned) [25 (En. 2), N-(7-(2-(1H-tetrazol-5-yl)phenyl)-5-isopropyl-2,3,4,5-tetrahydrobenzo[b]oxepin-9-yl)-2-(p-tolyl)acetamide] | 7.15 |
| Cc1cc(NC(=O)Nc2cc(-c3ccccc3-c3nnn[nH]3)cc3c2OCCCC3c2ccccc2)no1 (centres unmarked) [Example 15, 1-(7-(2-(1H-tetrazol-5-yl)phenyl)-5-phenyl-2,3,4,5-tetrahydrobenzo[b]oxepin-9-yl)-3-(5-methylisoxazol-3-yl)urea] | 6.63 |
| O=C(Nc1ccccc1F)Nc1cc(-c2ccccc2-c2nnn[nH]2)cc2c1OCCCC2c1ccc(F)cc1 (centres unmarked) [Example 70, 1-(7-(2-(1H-tetrazol-5-yl)phenyl)-5-(4-fluorophenyl)-2,3,4,5-tetrahydrobenzo[b]oxepin-9-yl)-3-(2-fluorophenyl)urea] | 7.55 |
| O=C(Nc1ccccc1F)Nc1cc(-c2ccccc2-c2nnn[nH]2)cc2c1OCCCC2C1CC1 (single isomer, unassigned) [38 (En. 1), 1-(7-(2-(1H-tetrazol-5-yl)phenyl)-5-cyclopropyl-2,3,4,5-tetrahydrobenzo[b]oxepin-9-yl)-3-(2-fluorophenyl)urea] | 6.65 |
| C=C[C@H]1Oc2c(NC(=O)Nc3ccc(C)cc3)cc(-c3ccccc3-c3nnn[nH]3)cc2[C@@H]1c1ccccc1 (racemic) [Example 85, (+/−)-1-((trans)-5-(2-(1H-tetrazol-5-yl)phenyl)-3-phenyl-2-vinyl-2,3-dihydrobenzofuran-7-yl)-3-(p-tolyl)urea] | 7.49 |

Now those with a higher pIC50, led by results:

| pIC50 | SMILES |
| --- | --- |
| 7.59 | C=C(C)C1Oc2c(NC(=O)Nc3ccc(C)cc3)cc(-c3ccccc3C(=O)O)cc2C1c1ccccc1 (racemic) [Example 96] |
| 7.59 | c1ccc(C2CCCOc3c(Nc4ccn5nccc5n4)cc(-c4ccccc4-c4nnn[nH]4)cc32)cc1 (single isomer, unassigned) [84 (En. 2), N-(7-(2-(1H-tetrazol-5-yl)phenyl)-5-phenyl-2,3,4,5-tetrahydrobenzo[b]oxepin-9-yl) pyrazolo[1,5-a]pyrimidin-5-amine] |
| 7.59 | COCC(CC(=O)O)c1cc(Nc2ccc(C#N)cc2)c2c(c1)C(C1CC1)CCCO2 (single isomer, unassigned) [131 (dia. 1), 3-(9-(4-Cyanophenylamino)-5-cyclopropyl-2,3,4,5-tetrahydrobenzo[b]oxepin-7-yl)-4-methoxybutanoic acid] |
| 7.67 | Cc1ccc(NC(=O)Nc2cc(-c3ccccc3-c3nnn[nH]3)cc3c2OCCC3c2ccccc2)cc1 (racemic) [Example 132, (+/−)-1-(6-(2-(2H-tetrazol-5-yl)phenyl)-4-phenylchroman-8-yl)-3-(p-tolyl)urea] |
| 7.74 | CCC(C)C1CCCOc2c(NC(=O)Nc3ccc(C)cc3)cc(-c3ccccc3-c3nnn[nH]3)cc21 (single isomer, unassigned) [Example 29, 1-(7-(2-(1H-tetrazol-5-yl)phenyl)-5-(sec-butyl)-2,3,4,5-tetrahydrobenzo[b]oxepin-9-yl)-3-(p-tolyl)urea] |
| 7.76 | c1ccc(C2CCCOc3c(Nc4ccc5ccccc5n4)cc(-c4ccccc4-c4nnn[nH]4)cc32)cc1 (single isomer, unassigned) [Example 83, N-(7-(2-(1H-tetrazol-5-yl)phenyl)-5-phenyl-2,3,4,5-tetrahydrobenzo[b]oxepin-9-yl) quinolin-2-amine] |
| 7.92 | C=C[C@@H]1Oc2c(NC(=O)Nc3ccc(C)cc3)cc(-c3ccccc3-c3nn[nH]n3)cc2[C@@H]1c1ccccc1 (racemic) [Example 86, (+/−)-1-((cis)-5-(2-(1H-tetrazol-5-yl)phenyl)-3-phenyl-2-vinyl-2,3-dihydrobenzofuran-7-yl)-3-(p-tolyl)urea] |
| 7.93 | CCC(C)C1CCCOc2c(NC(=O)Cc3ccc(C)cc3)cc(-c3ccccc3-c3nnn[nH]3)cc21 (single isomer, unassigned) [30 (Dia. mix 2), N-(7-(2-(1H-tetrazol-5-yl)phenyl)-5-(sec-butyl)-2,3,4,5-tetrahydrobenzo[b]oxepin-9-yl)-2-(p-tolyl)acetamide] |
| 8.20 | Cc1ccc(NC(=O)Nc2cc(-c3ccccc3-c3nnn[nH]3)cc3c2OC(C)(C)C3c2ccccc2)cc1 (racemic) [Example 123, (±)-1-(5-(2-(1H-Tetrazol-5-yl)phenyl)-2,2-dimethyl-3-phenyl-2,3-dihydrobenzofuran-7-yl)-3-(p-tolyl)urea] |
| 8.25 | C=CC1Oc2c(NC(=O)Nc3ccc(CC)cc3)cc(-c3ccccc3-c3nnn[nH]3)cc2C1CCC(F)(F)F (racemic) [Example 99] |
| 8.59 | Fc1cccc2oc(Nc3cc(-c4ccccc4-c4nnn[nH]4)cc4c3OCCCC4C3CC3)nc12 (centres unmarked) [Example 28, N-(7-(2-(1H-tetrazol-5-yl)phenyl)-5-cyclopropyl-2,3,4,5-tetrahydrobenzo[b]oxepin-9-yl)-4-fluorobenzo[d]oxazol-2-amine] |
| 8.89 | c1ccc(C2CCCOc3c(Nc4nc5ccccc5o4)cc(-c4ccccc4-c4nnn[nH]4)cc32)cc1 (single isomer, unassigned) [53 (En. 2), N-(7-(2-(1H-tetrazol-5-yl)phenyl)-5-phenyl-2,3,4,5-tetrahydrobenzo[b]oxepin-9-yl) benzo[d] oxazol-2-amine] |
| 9.11 | Cc1ccc(NC(=O)Nc2cc(-c3ccccc3-c3nnn[nH]3)cc3c2OCCC(C)C3c2ccccc2)cc1 (single isomer, unassigned) [Example 46, 1-(7-(2-(1H-tetrazol-5-yl)phenyl)-4-methyl-5-phenyl-2,3,4,5-tetrahydrobenzo[b]oxepin-9-yl)-3-(p-tolyl)urea] |
